17 molecules from paper PMC6273843, “Synthesis and Selective Cytotoxic Activities on Rhabdomyosarcoma and Noncancerous Cells of Some Heterocyclic Chalcones” (Molecules, 2016) can be followed below.

Data set [1] is described as follows: MTT cytotoxicity assay on noncancerous LLC-PK1 cells. Format: cell-based, Pig. The settings on record: pig, LLC-PK1 pig kidney epithelial cells, read-out: % Cell Viability on Noncancer LLC-PK1 cells. The procedure: (§1) Pig Kidney Epithelial (LLC-PK1) cell line (ATCC® CL-101™) was a generous gift of Prof. Jeong Hill Park, Research Institute of Pharmaceutical Science (College of Pharmacy, Seoul National University, Seoul 151-172, Korea).
(§2) RMS or LLC-PK1 cells were seeded and cultured in EMEM medium (Gibco, Waltham, MA, USA) supplemented with 10% fetal calf serum (FCS) (Gibco), 2 mM L-glutamine, 100 IU/mL penicillin and 100 µg/mL streptomycin (Sigma-Aldrich, St. Louis, MO, USA) in a humidified atmosphere of 5% CO2 at 37 °C.
(§3) The samples were dissolved in dimethyl sulfoxide (DMSO) at 10 mM and then diluted with culture medium to get three concentrations of 100; 50; 10 µM or 25; 12.5; 2.5 µM for cell proliferation assays. […] DMSO at different concentrations or was used as a blank control. Paclitaxel (Anzatax®, Mayne Pharma, Australia) was used as the reference compound at the concentration of 1, 5 and 10 µM (directly dissolved in culture medium).
(§4) The cells were cells were seeded in 96-well plates at 4.2 × 10^4 cell/cm^2. After 24 h of incubation at 37 °C, 5% CO2, 100 μL of chalcone samples at tested concentrations, reference compound, and blank control (DMSO) was added and incubated for 24 hours at 37 °C, 5% CO2.
(§5) Cell viability was evaluated as mitochondrial succinate dehydrogenase (SDH) activity, a marker of viable cells, using MTT test as described by Denizot and Lang. Briefly, SDH activity was detected after 3 hours incubation in culture medium without FCS containing 0.05 mg/mL MTT (3-4,5-dimethyl-thiazol-2-yl-2,5 diphenyl-tetrazolium bromide, Sigma-Aldrich), which is converted into formazan dissolved in acidified isopropanol (Merck, Darmstadt, Germany) by agitation for 10 min at room temperature. The produced purple solution was spectrophotometrically measured at 570 nm on Multiskan™ FC microplate Photometer (Thermo Scientific, Waltham, MA, USA).
(§6) Each assay was done in triplicate and the standard deviation of absorbance was less than 10% of the mean. The results were expressed as Mean + SD of six cultures of one representative experiment and statistically analyzed by Mann-Whitney test with SPSS 22.0 for Windows software. Threshold of significance was set at p < 0.05.
(§7) The IC50 values were calculated based on the linear regression between the concentrations of testing compound and the inhibition percentages of cells. The chalcone compounds with significant potential against RMS cells (IC50 < 20 μM) were then tested for their toxicity on LLC-PK1 cells.
(In general: Formazan colour is commonly taken as a measure of viable cells.)

In data set [2] the test system is Pig Kidney Epithelial (LLC-PK1) cell line (ATCC CL-101). The description is as above. Format: cell-based. The settings on record: LLC-PK1 cells. The procedure: as §1, §2, §3, §4, §5, §6, §7
Data set [3] deals with Human muscle rhabdomyosarcoma (RMS) cell line (ATCC CCL-136). The data set can be described thus: MTT cell proliferation (cytotoxicity) assay on RMS cells. Conditions: for IC50: MTT, 24 h incubation with sample. Format: cell-based.
A short description of data set [4]: MTT cytotoxicity assay on noncancerous LLC-PK1 cells. Type of data set: cell-based. The settings on record: pig, LLC-PK1 pig kidney epithelial cells, read-out: % Cell Viability on Noncancer LLC-PK1 cells.

Where two headings read alike, the source gives them in different places. Where only a bound is given, the exact number is not on record here.

The term melting point denotes the temperature, or range, at which the solid turns liquid. Regarding `CN(C)c1ccc(/C=C/C(=O)c2ccc3c(c2)Nc2ccccc2S3)cc1` [Compound 1, (E)-3-(4-(N,N-Dimethylamino)phenyl)-1-(10H-phenothiazin-2-yl)prop-2-en-1-one], the melting point is 232 to 233 °C.

With `O=C(/C=C/c1ccc(OCc2ccccc2)cc1)c1ccc2c(c1)Nc1ccccc1S2` [Compound 2, (E)-3-(4-Benzyloxyphenyl)-1-(10H-phenothiazin-2-yl)prop-2-en-1-one], the melting point lay within 215 to 216 °C.

In turn, `O=C(/C=C/c1cccc(Br)c1)c1ccc2c(c1)Nc1ccccc1S2` [Compound 3, (E)-3-(3-Bromophenyl)-1-(10H-phenothiazin-2-yl)prop-2-en-1-one] yielded a melting point of 230 to 232 °C.

Broadly, the viability is a read-out of living cells in per cent, often relative to untreated cells. What is called IC50 is the concentration at which inhibition is half-maximal. Read a high IC50 as lower potency. In the case of `O=C(/C=C/c1ccccc1Cl)c1ccc2c(c1)Nc1ccccc1S2` [Compound 7, (E)-3-(2-Chlorophenyl)-1-(10H-phenothiazin-2-yl)prop-2-en-1-one], the melting point lay within 202 to 203 °C. Besides, in data set [1] (10 μM), the viability at 24 h, 10 µM was found to be 100 ± 6.5%. For the same molecule, in data set [1], the viability at 24 h, 50 µM stood at 109 ± 10.9% and the viability at 24 h, 100 µM was 94.8 ± 7.6%. Also, in data set [2], the “toxicity on the noncancerous LLC-PK1 cell line (in words)” value (from here on “toxicity”) is on record as “almost complete absence of toxicity”. In addition, the IC50 in data set [3] (Homo sapiens, 24 h) is less than 20 µM. This molecule also showed an IC50 in data set [3] of 18 ± 1.63 µM.

As for `COc1ccc(/C=C/C(=O)c2ccc3c(c2)Nc2ccccc2S3)c(OC)c1` [Compound 8, (E)-3-(2,4-Dimethoxyphenyl)-1-(10H-phenothiazin-2-yl)prop-2-en-1-one], the melting point was 178 to 179 °C. Moreover, in data set [1] (10 μM), the viability at 24 h, 10 µM amounted to 97.3 ± 10.2%. Also, in data set [1], the viability at 24 h, 50 µM worked out at 103 ± 6.4% and the viability at 24 h, 100 µM was found to be 105 ± 5.4%. For the same molecule, the “toxicity” value in data set [2] is reported as “almost complete absence of toxicity”. Also, in data set [3] (Homo sapiens, 24 h), the IC50 was less than 20 µM. In data set [3], this molecule registered an IC50 of 19.7 ± 1.63 µM.

For the molecule `O=C(/C=C/c1cccs1)c1ccc2c(c1)Nc1ccccc1S2` [Compound 9, (E)-3-(Thiophen-2-yl)-1-(10H-phenothiazin-2-yl)prop-2-en-1-one], the melting point was in the range of 229 to 230 °C. Also, the viability at 24 h, 10 µM in data set [1] (10 μM) is 98.8 ± 10.6%. Also, in data set [1], the viability at 24 h, 50 µM came to 98.2 ± 7.3% and the viability at 24 h, 100 µM was found to be 97.1 ± 5%. In addition, in data set [2], the “toxicity” value is given as “almost complete absence of toxicity”. The molecule further registered a half-maximal inhibitory concentration (IC50) in data set [3] (Homo sapiens, 24 h) of less than 20 µM. The molecule further displayed an IC50 in data set [3] of 12.5 ± 1.74 µM.

As for `O=C(/C=C/c1ccc(Cl)cc1)c1cccs1` [Compound 10], the IC50 in data set [3] (Homo sapiens, 24 h) is 49.6 ± 3.2 µM.

As to `O=C(/C=C/c1ccccc1O)c1cccs1` [Compound 11], half-maximal inhibition in data set [3] (Homo sapiens, 24 h) (IC50) was put at 48.8 ± 2.42 µM.

With `COc1cc(/C=C/C(=O)c2cccs2)cc(OC)c1OC` [Compound 13], in data set [3] (Homo sapiens, 24 h), half-maximal inhibition (IC50) required 26.6 ± 1.42 µM.

In general, inhibition refers to the percentage by which the read-out fell short of the control. Read a low inhibition as a weak effect. `COc1cc(/C=C/C(=O)c2ccco2)cc(OC)c1OC` [Compound 14] gave an inhibition at 25 µM in data set [3] (Homo sapiens, 25 μM) of 42.9%. This molecule came in with an inhibition at 50 µM in data set [3] (Homo sapiens, 50 μM) of 26.5%. Also, testing at 100 µM in data set [3] (Homo sapiens, 100 μM) gave an inhibition of 15.1%. The IC50 in data set [3] (Homo sapiens, 24 h) was 29.1 ± 1.82 µM.

With `CN(C)c1ccc(/C=C/C(=O)c2ccco2)cc1` [Compound 15], in data set [3] (Homo sapiens, 24 h), the IC50 came out at 77.3 ± 4.69 µM.

`COc1cc(/C=C/C(=O)c2ccccn2)cc(OC)c1OC` [Compound 16]: in data set [1] (10 μM), the viability at 24 h, 10 µM was 99.1 ± 3.1%. Besides, in data set [1], the viability at 24 h, 50 µM was determined as 102 ± 12.1% and the viability at 24 h, 100 µM was 104 ± 6.5%. The “toxicity” value in data set [2] is given as “almost complete absence of toxicity”. In data set [3] (Homo sapiens, 24 h), this molecule registered an IC50 of less than 20 µM. The molecule further registered an IC50 in data set [3] of 19.6 ± 1.04 µM.

Consider `COc1ccc(C(=O)/C=C/c2ccccn2)c(O)c1` [Compound 19, (E)-3-(Pyridin-2-yl)-1-(2-hydroxy-4-methoxyphenyl)prop-2-en-1-one], for which the melting point was 130 to 131 °C. Moreover, in data set [3] (Homo sapiens, 24 h), inhibition was half-maximal at 26.6 ± 1.72 µM (IC50).

`COc1ccc(C(=O)/C=C/c2cccnc2)c(O)c1` [Compound 20, (E)-3-(Pyridin-3-yl)-1-(2-hydroxy-4-methoxyphenyl)prop-2-en-1-one] registered a melting point of 128 to 129 °C. The molecule further gave an IC50 in data set [3] (Homo sapiens, 24 h) of 20.8 ± 1.33 µM.

Consider `CC(=O)O[C@H]1C(=O)[C@@]2(C)[C@H]([C@H](OC(=O)c3ccccc3)[C@]3(O)C[C@H](OC(=O)[C@H](O)[C@@H](NC(=O)c4ccccc4)c4ccccc4)C(C)=C1C3(C)C)[C@]1(OC(C)=O)CO[C@@H]1C[C@@H]2O` [Paclitaxel, reference compound], for which the viability at 24 h, 2 µM in data set [4] (2 μM (paclitaxel reference)) was 103 ± 6%. Moreover, the viability at 24 h, 20 µM in data set [4] (20 μM (paclitaxel reference)) was 75 ± 3.6%. The viability at 24 h, 10 µM in data set [1] (10 μM (paclitaxel reference)) came out at 108 ± 8.2%. In data set [3] (Homo sapiens, 24 h), this molecule showed a half-maximal inhibitory concentration (IC50) of 10.8 ± 0.47 µM.

“(E)-3-(Pyridin-2-yl)-1-(2-hydroxyphenyl)prop-2-en-1-one [Compound 17]” registered a concentration for half-maximal inhibition (IC50) in data set [3] of 92.9 ± 6.14 µM.

For “(E)-3-(Pyridin-3-yl)-1-(2-hydroxyphenyl)prop-2-en-1-one [Compound 18]”, in data set [3], the IC50 was 91.1 ± 2.45 µM.
